Data: ChEMBL document CHEMBL1122198, “Synthesis and dopamine receptor binding of exo- and endo-2-amino-6,7-dihydroxybenzonorbornene, rigid analogues of 2-amino-6,7-dihydroxytetrahydronaphthalene” (J Med Chem, 1982)

Biological target: Dopamine receptor (Bos taurus, UniProt Q95136+P20288)
Assay: Evaluated for the inhibition of binding of [3H]DA (dopamine) to dopamine receptor in calf striatal homogenate

NC1CCc2cc(O)c(O)cc2C1 (stereo unspecified)
IC50: 6 nM
